Values quoted from earlier work, collected in patent US20200368163A1, “EN[…]-DISPERSIBLE CANNABINOID NANOPARTICLE COMPOSITIONS, METHODS AND SYSTEMS” (The Trustees of Princeton University, priority 2019, published 2020).

C=C(C)[C@@H]1CCC(C)=C[C@H]1c1c(O)cc(CCCCC)cc1O [CBD, Cannabidiol]
log P: ~6
